Results taken from patent US20200131144A1, “AMINE OR (THIO)AMIDE CONTAINING LXR MODULATORS” (Phenex-FXR GmbH, priority 2017, published 2020).

Experiments:
[1] = target: T1, GST-LXRβ ligand-binding domain (Homo sapiens, UniProt P55055, INS174Q); assay: TR-FRETβ activity assay (NCoA3 coactivator peptide recruitment); format: biochemical; settings: 1 μM 24(S)-25-epoxycholesterol as prestimulating agonist; inverse agonist unless *
T1 construct: amino acids 156-461; NP009052; made in house; host or cells: E. coli
T1 sequence (P55055 with tags, fused parts or gaps INS174Q limits assumed): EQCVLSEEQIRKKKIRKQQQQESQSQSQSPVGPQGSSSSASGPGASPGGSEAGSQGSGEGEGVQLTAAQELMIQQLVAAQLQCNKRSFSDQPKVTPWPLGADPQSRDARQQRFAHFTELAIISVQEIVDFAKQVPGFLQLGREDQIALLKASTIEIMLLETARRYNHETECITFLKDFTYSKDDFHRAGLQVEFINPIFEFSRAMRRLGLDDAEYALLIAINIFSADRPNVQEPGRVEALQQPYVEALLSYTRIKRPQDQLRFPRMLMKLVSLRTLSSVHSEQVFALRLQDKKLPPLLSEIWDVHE
Method in brief: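 Coactivator recruitment read as TR-FRET (ex 340, em 615 and 665 nm) after 1 h equilibration at 4° C, in triplicate. Mix held 76 nM GST-tagged LXRβ LBD (aa 156-461, E. coli), 400 nM biotin-NCoA3 peptide, Tb-cryptate anti-GST, streptavidin-XL665, 240 mM KCl buffer.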

LXRα full length (FL) = target: T2, LXRα full length (FL) (Homo sapiens, UniProt Q13133); assay: LXR Gal4 reporter transient transfection assay, mammalian two-hybrid, FL-M2H Gal4α; format: cell-based; settings: HEK293 cells; inverse agonist unless *
T2 construct: the full length (FL) proteins of LXRα (amino acids 1-447); NP005684; expressed in transfected cells; host or cells: HEK293
T2 sequence (Q13133 1-447): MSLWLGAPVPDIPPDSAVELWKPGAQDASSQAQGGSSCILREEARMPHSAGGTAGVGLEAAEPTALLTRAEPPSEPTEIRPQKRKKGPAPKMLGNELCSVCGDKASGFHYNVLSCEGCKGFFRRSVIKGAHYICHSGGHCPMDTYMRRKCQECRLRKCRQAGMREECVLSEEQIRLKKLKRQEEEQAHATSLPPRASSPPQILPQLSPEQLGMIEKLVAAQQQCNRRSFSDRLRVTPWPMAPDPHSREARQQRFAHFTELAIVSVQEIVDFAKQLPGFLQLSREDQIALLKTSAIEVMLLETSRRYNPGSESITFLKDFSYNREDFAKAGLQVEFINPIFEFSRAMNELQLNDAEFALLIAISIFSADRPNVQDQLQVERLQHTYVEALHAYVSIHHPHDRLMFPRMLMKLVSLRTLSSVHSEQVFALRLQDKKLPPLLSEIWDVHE
Method in brief: (§1)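 Mammalian two-hybrid read-out: interaction of LXRα or LXRβ (full length or ligand-binding domain, NFkB activation-domain fusions) with GAL4-fused SRC1 or NCoR domains drives GAL4-responsive firefly luciferase in HEK293 cells, normalised by Renilla cotransfection. Compounds given 4 h after transfection, ≤0.2% vehicle, cells lysed after 16 h.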

LXRβ full length (FL) = target: T3, LXRβ full length (FL) (Homo sapiens, UniProt P55055, INS174Q); assay: LXR Gal4 reporter transient transfection assay, mammalian two-hybrid, FL-M2H Gal4β; format: cell-based; settings: HEK293 cells; inverse agonist unless *
T3 construct: the full length (FL) proteins of LXRα (amino acids 1-447); NP005684; NP009052; expressed in transfected cells; host or cells: HEK293
T3 sequence (P55055 with tags, fused parts or gaps INS174Q): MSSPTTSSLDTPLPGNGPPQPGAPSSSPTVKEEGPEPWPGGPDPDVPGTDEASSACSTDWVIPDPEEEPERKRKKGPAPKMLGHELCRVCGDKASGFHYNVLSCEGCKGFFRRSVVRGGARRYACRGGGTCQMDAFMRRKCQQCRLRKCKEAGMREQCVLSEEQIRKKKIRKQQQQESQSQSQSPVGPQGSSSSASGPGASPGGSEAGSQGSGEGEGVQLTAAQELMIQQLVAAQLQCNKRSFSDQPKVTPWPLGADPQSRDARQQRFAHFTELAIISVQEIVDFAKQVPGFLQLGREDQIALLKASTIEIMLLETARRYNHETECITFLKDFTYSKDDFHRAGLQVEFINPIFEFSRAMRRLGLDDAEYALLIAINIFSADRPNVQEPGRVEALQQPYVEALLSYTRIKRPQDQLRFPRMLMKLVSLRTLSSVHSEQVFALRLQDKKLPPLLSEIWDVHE
Method in brief: as §1

Compound	EC50 [1] [nM]	EC50 (LXRα full length (FL)) [nM]	EC50 (LXRβ full length (FL)) [nM]	FRETβ [1]
O=C(O)CS(=O)(=O)c1cccc(-c2ccc(CN(Cc3ccc(C(F)(F)F)o3)C(=O)c3c(OC(F)F)ccc4ccccc34)cc2)c1 [27/42]	100 to 1000	1000 to 10000	100 to 1000	–
Cc1ccc2c(F)cccc2c1CN(Cc1ccc(-c2cccc(C(C)(C)C(=O)O)c2)cc1)Cc1ccc(C(F)(F)F)o1 [27/44]	100 to 1000	< 100	< 100	–
Cc1cc(C)c([N+](=O)[O-])c(C)c1C(=O)N(Cc1ccc(-c2cccc(C(C)(C)C(=O)O)c2)cc1)Cc1ccc(C(F)(F)F)o1 [27/46]	< 100	< 100	< 100	–
Cc1cc(Br)cc(C)c1C(=O)N(Cc1ccc(-c2cccc(C(C)(C)C(=O)O)c2)cc1)Cc1ccc(C(F)(F)F)o1 [27/48]	100 to 1000	< 100	< 100	–
Cc1cc(F)cc(C)c1C(=O)N(Cc1ccc(-c2cccc(C(C)(C)C(=O)O)c2)cc1)Cc1ccc(C(F)(F)F)o1 [27/49]	100 to 1000	< 100	< 100	–
COCc1c(C)cc(C)c(C(=O)N(Cc2ccc(-c3cccc(C(C)(C)C(=O)O)c3)cc2)Cc2ccc(C(F)(F)F)o2)c1C [27/50]	100 to 1000	< 100	< 100	–
CC12CC3(C)CC(C)(C1)CC(C(=O)N(Cc1ccc(-c4cccc(C(C)(C)C(=O)O)c4)cc1)Cc1ccc(C(F)(F)F)o1)(C2)C3 [27/51]	–	100 to 1000	100 to 1000	B*
CCc1ccc2ccccc2c1CN(Cc1ccc(-c2cccc(C(C)(C)C(=O)O)c2)cc1)Cc1ccc(C(F)(F)F)o1 [27/52]	100 to 1000	< 100	< 100	–
Cc1ccc2ccc(F)cc2c1C(=O)N(Cc1ccc(-c2cccc(C(C)(C)C(=O)O)c2)cc1)Cc1ccc(C(F)(F)F)o1 [27/53]	< 100	< 100	< 100	–
Cc1ccc2nc(C)c(C)c(C(=O)N(Cc3ccc(-c4cccc(C(C)(C)C(=O)O)c4)cc3)Cc3ccc(C(F)(F)F)o3)c2c1 [27/54]	100 to 1000	< 100	< 100	–
CC(C)(C(=O)O)c1cccc(-c2ccc(CN(Cc3ccc(C(F)(F)F)o3)C(=O)c3c4c(nc5ccccc35)CCCC4)cc2)c1 [27/55]	100 to 1000	< 100	< 100	–
Cc1ccc2ccccc2c1C(=O)N(Cc1ccc(C(F)(F)F)o1)Cc1ccc(-c2cncc(S(=O)(=O)CC(=O)O)c2)cc1Cl [27/58]	1000 to 10000	100 to 1000	100 to 1000	–
Cc1ccc2ccccc2c1C(=O)N(Cc1ccc(C(F)(F)F)o1)Cc1ccc(-c2cccc(S(=O)(=O)CC(=O)O)c2)cc1Cl [27/59]	100 to 1000	100 to 1000	100 to 1000	–
COc1cc(-c2cncc(S(=O)(=O)CC(=O)O)c2)ccc1CN(Cc1ccc(C(F)(F)F)o1)C(=O)c1c(C)ccc2ccccc12 [27/60]	1000 to 10000	100 to 1000	100 to 1000	–
COc1cc(-c2cccc(S(=O)(=O)CC(=O)O)c2)ccc1CN(Cc1ccc(C(F)(F)F)o1)C(=O)c1c(C)ccc2ccccc12 [27/61]	1000 to 10000	100 to 1000	100 to 1000	–
Cc1ccc2ccccc2c1C(=O)N(Cc1ccc(C(F)(F)F)o1)Cc1ccc(-c2cncc(S(=O)(=O)CC(=O)O)c2)cc1C(F)(F)F [27/62]	1000 to 10000	1000 to 10000	100 to 1000	–
Cc1ccc2ccccc2c1C(=O)N(Cc1ccc(C(F)(F)F)o1)Cc1ccc(-c2cncc(C(C)(C)C(=O)O)c2)cc1OC(F)F [27/64]	100 to 1000	100 to 1000	< 100	–
CCc1cc(-c2cncc(C(C)(C)C(=O)O)c2)ccc1CN(Cc1ccc(C(F)(F)F)o1)C(=O)c1c(C)ccc2ccccc12 [27/65]	100 to 1000	< 100	< 100	–
COCc1c(C)cc(C)c(CN(Cc2ccc(-c3cccc(C(C)(C)C(=O)O)c3)cc2)Cc2ccc(C(F)(F)F)o2)c1C [27/71]	100 to 1000	< 100	< 100	–
Cc1ccc2ccccc2c1CN(Cc1ccc(-c2cccc([C@H](C)C(=O)O)c2)cc1)Cc1ccc(C(F)(F)F)o1 [27/73]	100 to 1000	< 100	< 100	–

Further lines, results first:

EC50 [1] [nM]	EC50 (LXRα full length (FL)) [nM]	EC50 (LXRβ full length (FL)) [nM]	FRETβ [1]	Compound
100 to 1000	100 to 1000	< 100	–	Cc1ccc2ccccc2c1C(=O)N(Cc1ccc(-c2cccc(C(C)(N)C(=O)O)c2)cc1)Cc1ccc(C(F)(F)F)o1 (stereo not drawn) [27/74]
100 to 1000	< 100	< 100	–	Cc1ccc2ccccc2c1C(=O)N(Cc1ccc(-c2cccc(C3(C(=O)O)CC3)c2)cc1)Cc1ccc(C(F)(F)F)o1 [27/75]
1000 to 10000	< 100	< 100	–	COc1nc(-c2cccc(C(C)(C)C(=O)O)c2)ccc1CN(Cc1ccc(C(F)(F)F)o1)C(=O)c1c(C)ccc2ccccc12 [27/77]
100 to 1000	100 to 1000	100 to 1000	–	CN1CCc2nc3ccccc3c(C(=O)N(Cc3ccc(-c4cccc(C(C)(C)C(=O)O)c4)cc3)Cc3ccc(C(F)(F)F)o3)c2C1 [27/80]
1000 to 10000	100 to 1000	100 to 1000	–	Cc1ccc2ccccc2c1CN(Cc1ccc(-c2cccc(C(=O)C(=O)O)c2)cc1)Cc1ccc(C(F)(F)F)o1 [27/82]
< 100	< 100	< 100	–	Cc1ccc2ccccc2c1C(=O)N(Cc1ccc(-c2cccc([C@H](C)C(=O)O)c2)cc1)Cc1cccc(C(F)(F)F)c1 [27/83]
100 to 1000	< 100	< 100	–	Cc1ccc2ccccc2c1C(=O)N(Cc1ccc(-c2cccc([C@H](C)C(=O)O)c2)cc1)Cc1cccc(C#N)c1 [27/84]
1000 to 10000	100 to 1000	100 to 1000	–	COc1cc(-c2cccc(C(C)(C)C(=O)O)c2)ncc1CN(Cc1ccc(C(F)(F)F)o1)C(=O)c1c(C)ccc2ccccc12 [27/85]
< 100	< 100	< 100	–	Cc1ccc2cnccc2c1C(=O)N(Cc1ccc(-c2cccc(C(C)(C)C(=O)O)c2)cc1)Cc1ccc(C(F)(F)F)o1 [27/86]
100 to 1000	< 100	< 100	–	CCc1nc2cnccc2c(C(=O)N(Cc2ccc(-c3cccc(C(C)(C)C(=O)O)c3)cc2)Cc2ccc(C(F)(F)F)o2)c1C [27/88]
1000 to 10000	100 to 1000	100 to 1000	–	CCc1nc2ccncc2c(C(=O)N(Cc2ccc(-c3cccc(C(C)(C)C(=O)O)c3)cc2)Cc2ccc(C(F)(F)F)o2)c1C [27/89]
100 to 1000	< 100	< 100	–	Cc1nc2ccccc2c(C(=O)N(Cc2ccc(C(F)(F)F)o2)Cc2ncc(-c3cccc(C(C)C(=O)O)c3)cc2Cl)c1C (stereo not drawn) [27/90]
1000 to 10000	100 to 1000	< 100	–	Cc1ccc2ccccc2c1C(=O)N(Cc1ccc(C(F)(F)F)o1)Cc1ccc(-c2cccc(C(C)(C)C(=O)O)c2)nc1N [27/91]
100 to 1000	100 to 1000	< 100	–	Cc1nc2ncccc2c(C(=O)N(Cc2ccc(-c3cccc(C(C)(C)C(=O)O)c3)cc2)Cc2ccc(C(F)(F)F)o2)c1C [27/92]
100 to 1000	< 100	< 100	–	Cc1c(C(=O)N(Cc2ccc(-c3cccc(C(C)(C)C(=O)O)c3)cc2)Cc2ccc(C(F)(F)F)o2)c2ccccc2n(C)c1=O [27/94]
